Earlier results, collected in US5654277A, “Peptides having thrombospondin-like activity and their therapeutic use” (W. R. Grace & Co.-Conn., priority 1995, dated 1997).

System: B16-F10 murine melanoma cells
Settings: C57BL/6 mice

Substance	inhibition of lung colony formation / metastasis
GRGDS	dramatically inhibited the formation of lung colonies
YIGSR	dramatically inhibited B16-F10 melanoma cell metastasis
